Assay results published in patent publication US4279926A, “Method of relieving pain and treating inflammatory conditions in warm-blooded animals” (priority 1974, dated 1981).
In brackets after ≈: the same amount, converted by molar mass. Several values for one entry are separate records, joined by “and”; a condition that tells them apart may be missing. Identical values can stand only once. Counter-ions that a name gives are not always drawn.

What was measured:
[1] = tested on: carrageenin oedema, inflamed paw; assay: Carrageenin oedema of the rat paw (anti-inflammatory action, paw size/volume); type: in vivo, male Wistar rats; conditions: Table 2, 100 mg/kg p.o. (lysine salt: 60 as active substance)
[2] = tested on: pain threshold in the inflamed paw (carrageenin oedema); assay: Pain threshold under pressure of the inflamed (carrageenin) rat paw (analgesic action); conditions: Table 3, 100 mg/kg p.o. (lysine salt: 60 as active substance)
Method: At intervals after the treatment, the size of the treated paw and its sensitivity to pain under pressure were evaluated.

gastro-intestinal mucosa = conditions: known from the art; cited from earlier work
pH of aqueous solution = type: physicochemical
[3] = total mean values, especially during the first 3 hours
Method: The blood levels were then determined after 0.5, 1, 1.5, 2, 3, 4 and 5 hours.

[4] = tested on: patients with degenerative osteoarticular affections; assay: Clinical trial, i.m. 500 mg/day, efficacy in degenerative osteoarticular diseases; type: in vivo, human
Source text: In a subsequent clinical trial, 33 human subjects were used with an average age of 73.8±6.8, the minimum age being 61 and the maximum age 88; 7 of the subjects were males and the remaining 26 were female.
These subjects presented osteoarticular diseases of a chronic or subacute type, in which, during the period of observation, an evolutive flare-up of a pre-existing mono- or polyarticular arthrosic process was verified, as well as the appearance ex novo of an arthralgic picture with functional impotence of the osteoarticular segments which previously appeared to be undamaged.
In these cases, the parenteral route of administration was used so as to obtain, in view of the watersoluble characteristics of the test material, a more rapid symptomatic control. Furthermore, this method of administration permits a ready control of any differences in gastric tolerance as compared with the oral administration route, which is more commonly used.
The test substance was injected in the morning between 8 and 8.30 a.m. Before starting the therapy, midway through it and immediately after it, the following parameters were controlled in order to ascertain how effective the treatment had been: Lansbury's dynamometer (the values of muscular strength were expressed in kg.); the range of articular flexion and extension (the basal finding was expressed conventionally with the notations "+" to "+++," the successive findings being assessed as "unchanged," "increased" or "decreased," compared with the pre-treatment findings; subjective algesic symptomatology, the criteria of evaluation being similar to those adopted for determining the range of articular flexion and extension; finger tip-floor distance test, obtained by measuring the distance between the tips of the fingers and the floor when the subject bends forward; and morning stiffness, this being the time taken for the disappearance of stiffness on awakening.
Thus, for the evaluation of the test substance, it was thus possible to have 3 quantitative parameters (morning stiffness, Lansbury's index and finger tip-floor distance) and 2 semiquantitative parameters (pain symptomatology and flexo-extension strength). This is sufficient to obtain a reliable therapeutic profile in the test subjects, where the subjective element plays a predominant role in determining the clinical picture, as well as the therapeutic response.
The numerical data obtained were analysed statistically by means of the calculation of the Student "t" test on the mean values found before and after treatment.

Solubility = type: physicochemical
occult blood in faeces = assay: Occult blood in faeces (benzidine test); type: in vivo, human
Method: In cases with a history of gastroenteric disorders, even if not drug-dependent, the faeces were tested for the presence of occult blood, using the benzidine test.

Stability = conditions: salt or its aqueous solution
[5] = of 18 cases with major initial involvement
[6] = end of experiment, of 14 positive before treatment

## CCCCC1C(=O)N(c2ccccc2)N(c2ccccc2)C1=O [Phenyl-butazone, phenylbutazone]
[1]; 0 hrs, control 1.16 ± 0.02
  Paw volume - carrageenin oedema: 1.18 ± 0.02 mL
[1]; 3 hrs
  Paw volume, % variation referred to control: -25.4%
[1]; 4 hrs
  Paw volume, % variation referred to control: -23.6%
[1]; 4 hrs, control 2.29 ± 0.05, **p = 0.01
  Paw volume - carrageenin oedema: 1.75 ± 0.05 mL
[1]; 5 hrs
  Paw volume, % variation referred to control: -22.0%
[1]; 5 hrs, control 2.36 ± 0.06, **p = 0.01
  Paw volume - carrageenin oedema: 1.84 ± 0.05 mL
[2]; 0 hrs, control 101.7 ± 3.19
  Pain threshold - carrageenin oedema: 105.3 ± 3.03 g
[2]; 3 hrs, control 52.7 ± 2.00, **p = 0.01
  Pain threshold - carrageenin oedema: 122.7 ± 2.92 g
[2]; 5 hrs, control 51.3 ± 2.15, **p = 0.01
  Pain threshold - carrageenin oedema: 83.7 ± 4.04 g
gastro-intestinal mucosa
  Undesired side-effects (gastro-intestinal intolerance, ulceration) compared with phenyl-alkanoic acids: also show these undesired side-effects in an even more pronounced form

## CC(C)Cc1ccc(C(C)C(=O)O)cc1 (racemic) [Example 1]
pH of aqueous solution
  pH of aqueous solution: substantially neutral pH
[3]
  Blood levels compared with oral sodium salt: higher blood levels are always obtained, especially during the first 3 hours, than after the oral administration of the sodium salt
[4]; 33 patients, i.m. 500 mg/day
  Cases with increase of flexo-extension strength: 36.3%
  Cases with spontaneous pain reduced following treatment: 27 cases
  Cases with spontaneous pain reduced following treatment (%): 81.8%
[4]; Table 7, after i.m. 500 mg/day, s.d. ± 8.2
  Morning stiffness, mean after treatment: 18.93 min
[4]; Table 7, before treatment (baseline), s.d. ± 6.62
  Morning stiffness, mean before treatment: 20.17 min
[4]; Table 7, before treatment (baseline), s.d. ± 9.19
  Lansbury test, mean before treatment: 30.96 kg
[4]; Table 7, before treatment (baseline), s.d. ± 12.4
  Fingertip-floor distance, mean before treatment: 33.17 cm
[4]; Table 7, i.m. 500 mg/day, individual patients in order of case no. (cases 7, 8, 9, 14, 27-31, 33 not given), listed as lysine isobutylphenyl propionate
  Fingertip-floor distance, after treatment: 45 cm and 40 cm and 30 cm and 28 cm and 15 cm and 11 cm and 6 cm and 20 cm and 24 cm and 48 cm and 38 cm and 18 cm and 46 cm and 35 cm
[4]; Table 7, i.m. 500 mg/day, individual patients in order of case no. (cases 8, 9, 14, 26 not given), listed as lysine isobutylphenyl propionate
  Morning stiffness, after treatment: 30 min and 10 min and 0 min and 8 min and 2 min and 12 min and 25 min and 15 min and 11 min and 5 min and 9 min and 23 min and 18 min and 22 min and 20 min
[4]; after treatment vs before
  Radiologic changes: no radiologic changes
[4]; i.m. 500 mg/day
  Lansbury test, pre- vs post-treatment mean values: similar
  Overall safety and clinical efficacy: safe and clinically effective
[4]; i.m. 500 mg/day, Student t test
  P, difference between pre- and post-treatment duration of morning stiffness: < 0.01
[4]; i.m. 500 mg/day, of 33
  Patients with "excellent" effect: 25 patients
  Patients with "fair" result: 4 patients
  Patients with "poor" or "nil" effect: 4 patients
[4]; [5]
  Patients with marked improvement of flexo-extension strength: 10 patients
  Patients with marked improvement of flexo-extension strength (%): 55.5%
Solubility; in water
  solubility: ~400 mg/mL (≈ 1940 mM)
Occult blood in faeces; end of experiment
  Anaemia in blood counts: did not reveal any cases of anaemia which could be considered pathological or at the most suspect
Occult blood in faeces; [6]
  Faecal occult blood: haematic loss disappeared: 1 case
  Faecal occult blood: haematic loss reduced: 6 cases
  Faecal occult blood: haematic loss slightly increased: 2 cases
  Faecal occult blood: haematic loss unchanged: 5 cases
Occult blood in faeces; pretreatment (baseline)
  Faecal occult blood positive in pretreatment phase: 14 subjects

## CC(C)Cc1ccc(CC(=O)O)cc1 [Example 14, D,L-arginine salt of 2-(4-isobutyl-phenyl)-acetic acid]
pH of aqueous solution
  pH of aqueous solution: pH close to neutrality
Solubility
  Solubility in water: moderately soluble in water
Stability
  Stability: stable solution

## COc1ccc2c(c1)c(CC(=O)O)c(C)n2C(=O)c1ccc(Cl)cc1 [indomethacine]
gastro-intestinal mucosa
  Undesired side-effects (gastro-intestinal intolerance, ulceration) compared with phenyl-alkanoic acids: also show these undesired side-effects in an even more pronounced form
